Measured values published in PubChem BioAssay AID1918948 (Molecular Pharmacology Branch, DTP, NCI, 2023).

Test system: K-562 leukemia growth, % test/control
Experiment: Anticancer human tumor K-562 cell line growth inhibition;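 note: spheroids exposed to compounds for 7 days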;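 for viability, T/C: 100% = DMSO vehicle wells and lower values mean fewer viable cells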
Conditions: spheroids with HUVEC and MSC; for IC50: curve of first compound; for viability, T/C: stronger effect = lower value
Outline: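 Multicellular complex spheroids of tumor cells with human endothelial cells (HUVEC) and mesenchymal stem cells; the LSD1 inhibitor iadademstat was combined with standard-of-care or investigational agents. Top concentration at or near clinical Cmax, half-log dilutions; final DMSO ≤0.25%.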

[1] = second compound 0.1 µM, first compound 0.00949 µM
[2] = second compound 0.1 µM, first compound 0.03 µM
[3] = second compound 0.1 µM, first compound 0.0949 µM
[4] = second compound 0.1 µM, first compound 0.3 µM
[5] = second compound 0.1 µM, first compound 0.949 µM
[6] = second compound 0.1 µM, first compound 3 µM
[7] = second compound 0.316 µM, first compound 0.00949 µM
[8] = second compound 0.316 µM, first compound 0.03 µM
[9] = second compound 0.316 µM, first compound 0.0949 µM
[10] = second compound 0.316 µM, first compound 0.3 µM
[11] = second compound 0.316 µM, first compound 0.949 µM
[12] = second compound 0.316 µM, first compound 3 µM
[13] = second compound 1 µM, first compound 0.00949 µM
[14] = second compound 1 µM, first compound 0.03 µM
[15] = second compound 1 µM, first compound 0.0949 µM
[16] = second compound 1 µM, first compound 0.3 µM
[17] = second compound 1 µM, first compound 0.949 µM
[18] = second compound 1 µM, first compound 3 µM
[19] = second compound 3.16 µM, first compound 0.00949 µM
[20] = second compound 3.16 µM, first compound 0.03 µM
[21] = second compound 3.16 µM, first compound 0.0949 µM
[22] = second compound 3.16 µM, first compound 0.3 µM
[23] = second compound 3.16 µM, first compound 0.949 µM
[24] = second compound 3.16 µM, first compound 3 µM
[25] = second compound 10 µM, first compound 0.00949 µM
[26] = second compound 10 µM, first compound 0.03 µM
[27] = second compound 10 µM, first compound 0.0949 µM
[28] = second compound 10 µM, first compound 0.3 µM
[29] = second compound 10 µM, first compound 0.949 µM
[30] = second compound 10 µM, first compound 3 µM

COc1cc(Nc2ncc3c(n2)-c2ccc(Cl)cc2C(c2c(F)cccc2OC)=NC3)ccc1C(=O)O + NC1CCC(NC2CC2c2ccccc2)CC1
IC50 (second compound 0.1 µM): 3.23 nM | IC50 (second compound 0.316 µM): 3.86 nM | IC50 (second compound 1 µM): 3.25 nM | IC50 (second compound 3.16 µM): 3.29 nM | IC50 (second compound 10 µM): < 3.16 nM | viability, T/C (second compound 0.1 µM, first compound 0.00316 µM): 51% | viability, T/C (second compound 0.1 µM, first compound 0.01 µM): 21.1% | viability, T/C (second compound 0.1 µM, first compound 0.0316 µM): 20.4% | viability, T/C (second compound 0.1 µM, first compound 0.1 µM): 17.8% | viability, T/C (second compound 0.1 µM, first compound 0.316 µM): 14.6% | viability, T/C (second compound 0.1 µM, first compound 1 µM): 10.7% | viability, T/C (second compound 0.316 µM, first compound 0.00316 µM): 55.8% | viability, T/C (second compound 0.316 µM, first compound 0.01 µM): 22.6% | viability, T/C (second compound 0.316 µM, first compound 0.0316 µM): 22% | viability, T/C (second compound 0.316 µM, first compound 0.1 µM): 19.3% | viability, T/C (second compound 0.316 µM, first compound 0.316 µM): 13.9% | viability, T/C (second compound 0.316 µM, first compound 1 µM): 11.1% | viability, T/C (second compound 1 µM, first compound 0.00316 µM): 51.4% | viability, T/C (second compound 1 µM, first compound 0.01 µM): 21% | viability, T/C (second compound 1 µM, first compound 0.0316 µM): 23.4% | viability, T/C (second compound 1 µM, first compound 0.1 µM): 16.7% | viability, T/C (second compound 1 µM, first compound 0.316 µM): 13.1% | viability, T/C (second compound 1 µM, first compound 1 µM): 12.1% | viability, T/C (second compound 3.16 µM, first compound 0.00316 µM): 51.1% | viability, T/C (second compound 3.16 µM, first compound 0.01 µM): 21.3% | viability, T/C (second compound 3.16 µM, first compound 0.0316 µM): 23.7% | viability, T/C (second compound 3.16 µM, first compound 0.1 µM): 21.4% | viability, T/C (second compound 3.16 µM, first compound 0.316 µM): 18.5% | viability, T/C (second compound 3.16 µM, first compound 1 µM): 12.1% | viability, T/C (second compound 10 µM, first compound 0.00316 µM): 46.5% | viability, T/C (second compound 10 µM, first compound 0.01 µM): 22.1% | viability, T/C (second compound 10 µM, first compound 0.0316 µM): 25.6% | viability, T/C (second compound 10 µM, first compound 0.1 µM): 24.6% | viability, T/C (second compound 10 µM, first compound 0.316 µM): 19.9% | viability, T/C (second compound 10 µM, first compound 1 µM): 12.6%

NS(=O)(=O)OCC1CC(n2ccc3c(NC4CCc5ccccc54)ncnc32)CC1O (stereo not given) + NC1CCC(NC2CC2c2ccccc2)CC1
IC50 (second compound 0.1 µM): 17.1 nM | IC50 (second compound 0.316 µM): 17 nM | IC50 (second compound 1 µM): 14.9 nM | IC50 (second compound 3.16 µM): 10.9 nM | IC50 (second compound 10 µM): < 9.49 nM | viability, T/C [1]: 58.9% | viability, T/C [2]: 36% | viability, T/C [3]: 40.5% | viability, T/C [4]: 27.8% | viability, T/C [5]: 15.8% | viability, T/C [6]: 8.88% | viability, T/C [7]: 58.9% | viability, T/C [8]: 36.4% | viability, T/C [9]: 40% | viability, T/C [10]: 21.4% | viability, T/C [11]: 13.9% | viability, T/C [12]: 9.49% | viability, T/C [13]: 56.7% | viability, T/C [14]: 36.8% | viability, T/C [15]: 37% | viability, T/C [16]: 24.7% | viability, T/C [17]: 11.8% | viability, T/C [18]: 8.79% | viability, T/C [19]: 53.5% | viability, T/C [20]: 33.4% | viability, T/C [21]: 33.1% | viability, T/C [22]: 18.8% | viability, T/C [23]: 8.53% | viability, T/C [24]: 5.87% | viability, T/C [25]: 42% | viability, T/C [26]: 22.7% | viability, T/C [27]: 17.9% | viability, T/C [28]: 8.46% | viability, T/C [29]: 3.21% | viability, T/C [30]: 1.65%

O=C(C=Cc1cccc(S(=O)(=O)Nc2ccccc2)c1)NO + NC1CCC(NC2CC2c2ccccc2)CC1
IC50 (second compound 0.1 µM): 417 nM | IC50 (second compound 0.316 µM): 421 nM | IC50 (second compound 1 µM): 430 nM | IC50 (second compound 3.16 µM): 325 nM | IC50 (second compound 10 µM): 136 nM | viability, T/C [1]: 103% | viability, T/C [2]: 105% | viability, T/C [3]: 106% | viability, T/C [4]: 69.5% | viability, T/C [5]: 1.52% | viability, T/C [6]: 0.12% | viability, T/C [7]: 106% | viability, T/C [8]: 107% | viability, T/C [9]: 108% | viability, T/C [10]: 70.2% | viability, T/C [11]: 1.56% | viability, T/C [12]: 0.11% | viability, T/C [13]: 106% | viability, T/C [14]: 107% | viability, T/C [15]: 105% | viability, T/C [16]: 72% | viability, T/C [17]: 1.58% | viability, T/C [18]: 0.93% | viability, T/C [19]: 101% | viability, T/C [20]: 99.8% | viability, T/C [21]: 97.4% | viability, T/C [22]: 53.7% | viability, T/C [23]: 1.85% | viability, T/C [24]: 0.87% | viability, T/C [25]: 65.4% | viability, T/C [26]: 59.1% | viability, T/C [27]: 61.2% | viability, T/C [28]: 25.9% | viability, T/C [29]: 1.37% | viability, T/C [30]: 0.45%
